Like-named read-outs stand apart in the source and are kept apart here.

Data set [1] has as its system SARS-CoV-2 pseudo typed lentivirus. The format is cell-based. To be noted: fluorescence signal, 0-300 μM, pre-incubation 0.5 h.
The subject of data set [2] is dimethylbenzene-induced auricular edema.
Data set [3] has as its system RIPK1/NF-κB pathway in THP1 macrophages. The format is cell-based.
For data set [4] the following is noted: KM mice, oral 6000 mg/kg (2000 mg/kg 3 times within 24 h), 7 days observation.
For data set [5], the system named is carrageenan-induced paw edema. Description: Carrageenan-induced paw edema in rats. It counts as in vivo, Sprague-Dawley (SD) rats. The following applies: oral 50, 100, 200 mg/kg for 7 days, 2nd-5th h after carrageenan injection. Background: The carrageenan paw model is a standard test of acute inflammation.
The test system of a further data set is DNFB-induced ear edema. To be noted: DTH model.
The next data set concerns HCoV-229E. Kind of data set: microbe, parasite or virus in culture. It counts as cell-based. To be noted: Human coronavirus 229E.
The subject of data set [6] is LPS-induced acute lung injury. It counts as in vivo, C57BL/6 mice. The following applies: ALI mice.
The subject of the next data set is Vero E6 cells. The following applies: MTT, 72 h.
The target in data set [7] is interactions between the RBD^WT and ACE2 protein (Severe acute respiratory syndrome coronavirus 2, UniProt P0DTC2). It counts as binding. The following applies: ELISA.
Another data set concerns SARS-CoV-2. The format is cell-based. The following applies: VeroE6 cells, concentration-dependent.
The next data set can be described thus: in vitro. The following applies: human.
Setting [8] is: western blotting, THP1 macrophages.
Setting [9] is: Huh-7, read-out: EC50, HCoV-229E replication, CPE assay.
The mark [10] stands for this setting: Huh-7, read-out: EC50, HCoV-229E replication, MTT assay.
The mark [11] stands for this setting: oral pre-treatment 200, 300, 400 mg/kg.

As for `O=c1c(O)c(-c2cc(O)c(O)c(O)c2)oc2cc(O)cc(O)c12` [myricetin, 3,5,7-trihydroxy-2-(3,4,5-tri hydroxyphenyl)-4-benzopyrone], the “binding of the SARS-CoV-2 pseudo typed lentivirus to HEK293-hACE2-mCherry cells” value in [1] is on record as “repressed”. The immune organ toxicity entry in data set [2] (dimethylbenzene-induced auricular edema model) was “without immune organ toxicity”. Besides, the “edema formation in the dermis” value in data set [2] (dimethylbenzene-induced auricular edema, 7 days pre-treatment) is recorded as “significantly suppressed”. Moreover, the “RIPK1 expression levels and mRNA levels of NF-κBp65, RIPK3, RIPK1, MLKL, FADD, Caspase8 and JNK” value in data set [3] (LPS-induced THP1 macrophages, 100, 200, 400 μM) was “significantly reduced”. In [3] (setting [8]), the “RIPK1, phosphorylation of NF-κBp65 and RIPK1 induced by LPS stimulation” value is “significantly inhibited”; the “abundance of the NF-κBp65 protein among the total proteins” value is on record as “unaltered”. Further, the “acute toxicity, exposure-related clinical symptoms” value in [4] is reported as “no exposure-related clinical signs”. Also, the “inflammatory activity (paw edema)” value in data set [5] is “significantly reduce”. Further, the organ damage entry with DNFB-induced ear edema (BALB/c mice) is given as “without any organ damage”. The mouse ear thickness result in the data set with DNFB-induced ear edema (oral 50, 100, 200 mg/kg, 20, 40, 60 and 80 min after modeling) was “decreased”. The EC50 with HCoV-229E (setting [9]) worked out at 53.5 µM. In addition, the EC50 in the data set on HCoV-229E (setting [10]) worked out at 61.5 µM. In data set [6], the “mRNA levels of TNFα, IL-6 and NF-κBp65 in the lung tissues” value is recorded as “significantly downregulated”. Besides, in data set [6] (setting [11]), the alveolar inflammation entry was “decreased the alveolar inflammation” and the lung edema result was “alleviated lung edema”. In the data set with Vero E6 cells, this compound showed a CC50 of 248 µM. Moreover, in data set [7], the “interactions between the RBD^WT and ACE2 protein” value is reported as “significantly inhibited”.

With `CCC(CC)COC(=O)[C@H](C)N[P@](=O)(OC[C@H]1O[C@@](C#N)(c2ccc3c(N)ncnn23)[C@H](O)[C@@H]1O)Oc1ccccc1` [remdesivir, reference compound], the SARS-CoV-2 proliferation entry with SARS-CoV-2 is on record as “inhibited”. In “in vitro”, the CC50 turned out to be 108 µM. In addition, the results for the EC50 with HCoV-229E (setting [9]) and in the data set on HCoV-229E (setting [10]) were 0.0562 µM and 0.0583 µM, respectively.

For orientation: EC50 means the concentration giving half of the maximal effect.
